Experiment in all cases: Kinase panel profiling at 1 µmol/L (MSA or IMAP), percentage inhibition
Type in all cases: biochemical

Experiment [1] deals with panel of 255 wild-type kinases (Homo sapiens, UniProt Q9H4B4). The following applies: kinase PLK3; 1 µmol/L single concentration; read-out: %-inhibition at 1 µmol/L, PLK3.
Experiment [2] concerns the target T1, panel of 255 wild-type kinases (Homo sapiens, UniProt Q9UHD2).
T1 sequence (Q9UHD2 1-729): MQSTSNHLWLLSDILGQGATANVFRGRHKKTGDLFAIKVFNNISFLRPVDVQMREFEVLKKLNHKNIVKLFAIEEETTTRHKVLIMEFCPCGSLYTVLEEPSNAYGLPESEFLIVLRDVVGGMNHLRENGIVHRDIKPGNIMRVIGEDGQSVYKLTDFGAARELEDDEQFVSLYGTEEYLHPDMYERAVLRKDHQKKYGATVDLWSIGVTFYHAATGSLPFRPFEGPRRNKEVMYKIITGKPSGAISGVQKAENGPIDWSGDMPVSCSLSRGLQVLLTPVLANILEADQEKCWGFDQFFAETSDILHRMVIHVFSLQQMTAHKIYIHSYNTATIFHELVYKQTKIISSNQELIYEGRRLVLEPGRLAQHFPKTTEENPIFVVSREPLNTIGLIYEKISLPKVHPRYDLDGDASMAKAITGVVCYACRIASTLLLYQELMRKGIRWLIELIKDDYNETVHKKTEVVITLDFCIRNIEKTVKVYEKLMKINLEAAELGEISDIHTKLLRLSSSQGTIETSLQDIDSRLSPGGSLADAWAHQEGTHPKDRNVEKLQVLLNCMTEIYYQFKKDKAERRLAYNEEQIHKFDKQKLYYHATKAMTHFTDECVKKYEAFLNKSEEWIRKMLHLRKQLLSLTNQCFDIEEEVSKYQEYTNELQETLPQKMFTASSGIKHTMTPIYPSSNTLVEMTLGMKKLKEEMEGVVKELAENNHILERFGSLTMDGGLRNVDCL
The conditions noted are these: kinase TBK1; 1 µmol/L single concentration; read-out: %-inhibition at 1 µmol/L, TBK1.

The target of experiment [3] is T2, panel of 255 wild-type kinases (Homo sapiens, UniProt O15111).
T2 sequence (O15111 1-745): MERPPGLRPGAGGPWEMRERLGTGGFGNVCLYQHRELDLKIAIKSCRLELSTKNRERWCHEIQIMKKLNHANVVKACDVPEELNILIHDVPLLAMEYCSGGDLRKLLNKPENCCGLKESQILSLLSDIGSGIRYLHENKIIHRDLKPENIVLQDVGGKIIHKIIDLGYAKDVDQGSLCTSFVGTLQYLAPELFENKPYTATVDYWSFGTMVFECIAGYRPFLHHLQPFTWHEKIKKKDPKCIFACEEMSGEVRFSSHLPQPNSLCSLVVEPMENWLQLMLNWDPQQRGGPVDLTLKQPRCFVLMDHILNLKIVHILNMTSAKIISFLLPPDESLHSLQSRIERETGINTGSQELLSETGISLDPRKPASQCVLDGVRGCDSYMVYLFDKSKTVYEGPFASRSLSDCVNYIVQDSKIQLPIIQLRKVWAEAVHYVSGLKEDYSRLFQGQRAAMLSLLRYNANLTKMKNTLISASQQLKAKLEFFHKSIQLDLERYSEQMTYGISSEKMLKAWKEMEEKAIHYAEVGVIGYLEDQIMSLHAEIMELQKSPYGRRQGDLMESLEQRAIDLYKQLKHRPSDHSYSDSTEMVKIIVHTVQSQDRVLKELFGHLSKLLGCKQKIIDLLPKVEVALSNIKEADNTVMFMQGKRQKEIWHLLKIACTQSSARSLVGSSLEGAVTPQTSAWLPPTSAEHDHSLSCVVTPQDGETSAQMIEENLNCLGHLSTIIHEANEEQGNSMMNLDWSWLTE
The following applies: kinase IKKα; 1 µmol/L single concentration; read-out: %-inhibition at 1 µmol/L, IKKα.

For experiment [4], the target named is panel of 255 wild-type kinases (Homo sapiens, UniProt Q00526). The following applies: CDK3/CycE1 kinase assay; 1 µmol/L single concentration; read-out: %-inhibition CDK3/CycE1.
The target of experiment [5] is panel of 255 wild-type kinases (Homo sapiens, UniProt O95819). The following applies: kinase HGK; 1 µmol/L single concentration; read-out: %-inhibition at 1 µmol/L, HGK.
For experiment [6], the target named is panel of 255 wild-type kinases (Homo sapiens, UniProt P51812). The following applies: kinase RSK2; 1 µmol/L single concentration; read-out: %-inhibition at 1 µmol/L, RSK2.
Experiment [7] deals with panel of 255 wild-type kinases (Homo sapiens, UniProt P10721). The following applies: kinase KIT; 1 µmol/L single concentration; read-out: %-inhibition at 1 µmol/L, KIT.
For experiment [8], the target named is panel of 255 wild-type kinases (Homo sapiens, UniProt Q05397). The conditions noted are these: kinase FAK; 1 µmol/L single concentration; read-out: %-inhibition at 1 µmol/L, FAK.
Experiment [9] deals with panel of 255 wild-type kinases (Homo sapiens, UniProt P17252). The following applies: kinase PKCα; 1 µmol/L single concentration; read-out: %-inhibition at 1 µmol/L, PKCα.
Experiment [10] has as its target T3, panel of 255 wild-type kinases (Homo sapiens, UniProt Q9UQB9).
T3 sequence (Q9UQB9 1-309): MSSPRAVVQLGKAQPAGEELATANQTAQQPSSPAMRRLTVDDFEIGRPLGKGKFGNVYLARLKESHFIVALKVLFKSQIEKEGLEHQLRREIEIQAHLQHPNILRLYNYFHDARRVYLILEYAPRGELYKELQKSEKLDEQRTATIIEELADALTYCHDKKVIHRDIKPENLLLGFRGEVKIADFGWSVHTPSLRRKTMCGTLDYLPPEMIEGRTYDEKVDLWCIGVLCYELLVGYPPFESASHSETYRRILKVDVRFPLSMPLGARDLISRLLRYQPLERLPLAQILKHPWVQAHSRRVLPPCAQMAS
The conditions noted are these: AurC kinase assay; 1 µmol/L single concentration; read-out: %-inhibition AurC.

Experiment [11] addresses panel of 255 wild-type kinases (Homo sapiens, UniProt P49759). The conditions noted are these: kinase CLK1; 1 µmol/L single concentration; read-out: %-inhibition at 1 µmol/L, CLK1.
Experiment [12] addresses panel of 255 wild-type kinases (Homo sapiens, UniProt Q9NQU5). The conditions noted are these: PAK6; 1 µmol/L single concentration; read-out: %-inhibition, PAK6.

Consider four compounds from PMC9516332 (Frontiers in Oncology, 2022).

`COc1ccc(CN2C3CC2CN(c2ccc(-c4cc(OCC(C)(C)O)cn5ncc(C#N)c45)cn2)C3)cn1` [selpercatinib]: the inhibition at 1 µM in experiment [1] is -1.64%; in experiment [2], 12%; in experiment [3], -1.36%; in [4], 3.49%; in [5], 7%; in [6] it was 47%. In addition, the inhibition at 1 µM amounted to 54% in [7]; 10% in experiment [8]; 3.23% in experiment [9]; 80% in [10]; 19% in [11]; 14% in experiment [12].

As for `Cn1cnc2c(F)c(Nc3ccc(Br)cc3Cl)c(C(=O)NOCCO)cc21` [selumetinib], the inhibition at 1 µM in experiment [1] was 0.774%; in experiment [2], -1.18%; in experiment [3], -0.157%; in experiment [4] it was -9%; in experiment [5], 1.58%; in experiment [6] it was -1.52%. For the same compound, the inhibition at 1 µM in experiment [7] was -2.4%; in [8], -1.9%; in [9], 0.203%; in experiment [10], -0.456%; in experiment [11], 5%; in [12] it was 12%.

On to `Cc1cc(Nc2ncnc3ccc(NC4=NC(C)(C)CO4)cc23)ccc1Oc1ccn2ncnc2c1` [tucatinib], for which the inhibition at 1 µM in experiment [1] is 1.59%; in [2], -3%; in experiment [3], -1.68%; in experiment [4], -3.48%; in experiment [5], 3.65%; in experiment [6], -3%. The inhibition at 1 µM in experiment [7] was -1.27%; in [8], -1.17%; in experiment [9], 5%; in experiment [10] it was -5.26%; in experiment [11] it was 7%; in experiment [12], 6.34%.

For `C=CC(=O)N1CCC([C@@H]2CCNc3c(C(N)=O)c(-c4ccc(Oc5ccccc5)cc4)nn32)CC1` [zanubrutinib], the inhibition at 1 µM was -4.39% in experiment [1]; 0.115% in experiment [2]; -10% in experiment [3]; 2.65% in experiment [4]; 5.63% in experiment [5]; -6% in experiment [6]. In addition, the inhibition at 1 µM is -4.47% in [7]; 13% in experiment [8]; -2.63% in experiment [9]; -0.855% in [10]; 4.66% in experiment [11]; 11% in experiment [12].
